Legend:
P388 = assay: Cytotoxicity against P388 murine leukemic cell line; format: functional, cell-based; conditions: Mus musculus
P388CPT45 = assay: Cytotoxicity against topoisomerase 1-deficient subclone P388/CPT45 murine leukemic cell line; format: functional, cell-based; conditions: Mus musculus

Q: What does the source list for `O=c1c2cccc(CO)c2cc2n1Cc1cc3ccccc3nc1-2`?
A: IC50 (P388): 35.5 µM; IC50 (P388CPT45): 43 µM
